Results as given in patent publication US10285986B2, “Compounds and anti-tumor NQO1 substrates” (The Board of Trustees of the University of Illinois, priority 2011, dated 2019).
Converted amounts (≈) assume the structure as drawn. Read-outs that look alike come from different tables or passages of the source. Marks after values point to notes of the source that are not given here.

Tests used:
[1] = test system: MCF-7 cells; assay: Cytotoxicity to MCF-7 cells with or without 25 μM dicoumarol (sulforhodamine B assay); type: cell-based, human
Experimental: The NQO1-dependent cytotoxicity of the first set of derivatives was determined in MCF-7 cells which express high levels of NQO1. Cells were exposed to DNQ for 2 hours in the presence or absence of 25 μM DIC. The media was then removed and cells were washed once with media then fresh media was added and the cells were incubated for 72 hours. Cell death was assessed using the sulforhodamine B assay previously described. […] Substitution off the nitrogen appeared well tolerated (4-14 and 4-15).
The DNQ derivatives synthesized were assayed for their toxicity to MCF-7 cells with or without DIC. The data from these experiments is organized in Table 4.2. […] This tolerance of sterically-demanding substituents corresponds with a flexible and promiscuous NQO1 active site. The poor activity of hydroxyl derivative 4-41 may be a result of either poor binding with the largely hydrophobic NQO1 active site or with an excessively strong substrate-enzyme interaction because of hydrogen bonding.

[2] = Solubility in organic solvents; type: physicochemical; conditions: for solubility: organic solvent or mixture, thermodynamic from solid
Experimental: The solubility of DNQ derivatives in organic solvents was determined by measuring the amount of a given solvent required to dissolve a known amount of compound. Solvent was added to the compound in 50 μL aliquots and the slurry was sonicated. […] Solubility was assessed in DMSO, dichloromethane, and 33% methanol in dichloromethane (FIGS. 9, 10, and 11, respectively).

[3] = Aqueous solubility in pH 7.4 PBS by LC-MS; type: physicochemical; conditions: phosphate buffered saline, pH 7.4, aqueous buffer, thermodynamic from solid, PBS pH 7.4; Table 4.3
Experimental: The aqueous solubility of DNQ at pH 7.4 in phosphate buffered saline (PBS) was measured by LC-MS. DNQ was sonicated for 30 minutes in PBS then undissolved solid was removed by filtration through a 0.45 μm syringe filter and the filtrate was analyzed by LC-MS (λ=275 nm, ESI-TOF in negative mode). The optimal sonication time was determined by sonicating DNQ for 1, 5, 10, and 30 minutes. While the concentration of DNQ in solution increased substantially between 1, 5, and 10 minutes, there was only a minor difference between 10 and 30 minutes. During the 30 minute sonication the water bath warmed to 45° C. (samples were cooled to room temperature before filtration). A calibration curve was generated from 1-100 μM by dissolving DNQ in methanol to a concentration of 500 μM and making dilutions of this stock in 80:20 water:methanol. The calibration curve (measure by UV absorbance) was linear over this range; 1 μM was approximately the limit of detection. […] The solution was very pale yellow.
The aqueous solubility of the compounds was determined by an LC-MS assay as described in the specification above. We applied the calibration curve generated for DNQ to the derivatives under the assumption that the UV profile of the derivatives of DNQ would be similar to that of DNQ.
After sonication and filtration most of the aqueous solutions were colorless. The solutions of DNQ, 4-31, and 4-37 were faintly yellow while 4-8, 4-14 and 4-41 were substantially more colored. The solution of 4-8, 4-14 and 4-41 were diluted 10-fold with PBS prior to LC-MS analysis to ensure that the concentrations fell within the range of the calibration curve.

[4] = Solubility in organic solvents; type: physicochemical; conditions: organic solvent or mixture, thermodynamic from solid; THF; Table 1
[5] = molecular target: NQO1 (Homo sapiens, UniProt P15559); assay: NQO1 enzymatic measurements in vitro; type: biochemical; conditions: 1 μM substrate
Sequence of NQO1 (P15559 whole entry): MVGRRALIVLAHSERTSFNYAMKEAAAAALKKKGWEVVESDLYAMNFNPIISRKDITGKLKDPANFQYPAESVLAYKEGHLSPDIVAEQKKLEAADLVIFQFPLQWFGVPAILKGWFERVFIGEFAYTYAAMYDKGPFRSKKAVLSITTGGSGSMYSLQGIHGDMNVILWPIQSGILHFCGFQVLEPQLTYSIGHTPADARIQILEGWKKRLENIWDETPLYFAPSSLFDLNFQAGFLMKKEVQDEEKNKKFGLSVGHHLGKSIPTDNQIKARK
Experimental: As further evidence that the activity of these DNQ derivatives is dependent on their ability to be reduced by NQO1, full enzymatic measurements in vitro were performed. We found a strong correlation between catalytic efficiency of substrates in vitro and their cell culture toxicity. […] This provides strong evidence that the cytotoxicity of DNQ and its derivatives are dependent primarily upon the activity of NQO1 within the cell.

[6] = Homo sapiens, MCF7, 2 h, Table 4.1, 2 h exposure, no DIC, ± s.e., read-out: IC50 vs. MCF-7 cells
[7] = Homo sapiens, MCF7, classification in figure legends of FIGS. 7-11, read-out: IC50 ("active" / generally "inactive" compounds)
[8] = Homo sapiens, MCF7, read-out: IC50 vs. MCF-7 cells +25 μM DIC, Table 4.1, +25 μM DIC, ± s.e.
[9] = 2:1 CH2Cl2:MeOH, Table 4.3, read-out: Solubility in 2:1 CH2Cl2:MeOH
[10] = CH2Cl2:MeOH 2:1, Table 1, read-out: CH2Cl2:MeOH 2:1 solubility
[11] = CH2Cl2, Table 1, read-out: CH2Cl2 solubility
[12] = DMSO, Table 1, read-out: DMSO solubility
[13] = Homo sapiens, MCF7, Table 1, read-out: MCF7 IC50
[14] = Homo sapiens, MCF7, Table 4.2, no DIC, ± s.e., read-out: IC50 vs. MCF-7 cells
[15] = Homo sapiens, MCF7, read-out: IC50 vs. MCF-7 cells +25 μM DIC, Table 4.2, +25 μM DIC, ± s.e.

SMILES	IC50 [1, 6]	IC50 [1, 7]	IC50 [1, 8]	Fold protection by DIC ([1]; Table 4.1)	Solubility in CH2Cl2 ([2]; CH2Cl2, Table 4.3)	Solubility in DMSO ([2]; DMSO, Table 4.3)	solubility [2, 9]	solubility [2, 10]	solubility [2, 11]	solubility [2, 12]	solubility at 30 min [3]	solubility [4]	IC50 [1, 13]	Fold Protection of MCF7 cells w/ 25 μM dicoumarol ([1]; Table 1)	NQO1 Initial Velocity @ 1 μM [5]	solubility in solvents evaluated [2]	IC50 [1, 14]	IC50 [1, 15]	Fold protection by DIC ([1]; Table 4.2)	IC50 ([1]; Table 1, read-out: MCF7 IC50)
CCc1cc(=O)[nH]c2c1C(=O)c1c(C)cc(=O)n(C)c1C2=O [Compound 4-11]	0.55 ± 0.06 µM	> 0.5 µM	4.9 ± 0.8 µM	8.9	11 mM (≈ 3280 µg/mL)	16 mM (≈ 4770 µg/mL)	35 mM (≈ 10400 µg/mL)	35 mM (≈ 10400 µg/mL)	11 mM (≈ 3280 µg/mL)	16 mM (≈ 4770 µg/mL)	0.105 mM (≈ 31.3 µg/mL)	3.9 mM (≈ 1160 µg/mL)	–	–	–	–	–	–	–	–
CCCc1cc(=O)[nH]c2c1C(=O)c1c(C)cc(=O)n(C)c1C2=O [Compound 4-12]	3.4 ± 0.6 µM	> 0.5 µM	5.3 ± 1.2 µM	1.6	2.0 mM (≈ 625 µg/mL)	4.2 mM (≈ 1310 µg/mL)	10 mM (≈ 3120 µg/mL)	10 mM (≈ 3120 µg/mL)	2 mM (≈ 625 µg/mL)	4.2 mM (≈ 1310 µg/mL)	0.035 mM (≈ 10.9 µg/mL)	–	3.4 µM	1.6	250*	–	–	–	–	–
Cc1cc(=O)[nH]c2c1C(=O)c1c(C)cc(=O)[nH]c1C2=O [Compound 2-78, reference compound]	–	–	–	–	–	–	–	–	–	–	–	–	–	–	–	insoluble in all solvents evaluated except concentrated acids or bases	–	–	–	–
CCCCn1c2c(c(CCC)cc1=O)C(=O)c1c(CCC)cc(=O)[nH]c1C2=O [Compound 4-28]	–	> 0.5 µM	–	–	35 mM (≈ 13400 µg/mL)	7.1 mM (≈ 2720 µg/mL)	64 mM (≈ 24500 µg/mL)	64 mM (≈ 24500 µg/mL)	35 mM (≈ 13400 µg/mL)	7.1 mM (≈ 2720 µg/mL)	< 0.005 mM	17 mM (≈ 6500 µg/mL)	36 µM	0.9	75 ± 4	–	36 ± 11 µM	31 ± 10 µM	0.9	–
CCCc1cc(=O)n(C)c2c1C(=O)c1c(C)cc(=O)[nH]c1C2=O [Compound 4-9]	0.9 ± 0.25 µM	> 0.5 µM	2.6 ± 0.6 µM	2.8	6.1 mM (≈ 1910 µg/mL)	10 mM (≈ 3120 µg/mL)	18 mM (≈ 5620 µg/mL)	18 mM (≈ 5620 µg/mL)	6.1 mM (≈ 1910 µg/mL)	10 mM (≈ 3120 µg/mL)	0.059 mM (≈ 18.4 µg/mL)	4.6 mM (≈ 1440 µg/mL)	0.93 µM	2.8	600 ± 100	–	–	–	–	–
CC1=C(N2CC2)C(=O)C(CO)=C(N2CC2)C1=O [RH1, reference compound]	–	–	–	–	–	–	–	–	–	–	–	–	–	0.85	–	–	–	–	–	0.21 µM
CCCCn1c2c(c(C)cc1=O)C(=O)c1c(CCC)cc(=O)[nH]c1C2=O [Compound 4-27]	–	> 0.5 µM	–	–	17 mM (≈ 6020 µg/mL)	10 mM (≈ 3540 µg/mL)	49 mM (≈ 17400 µg/mL)	49 mM (≈ 17400 µg/mL)	17 mM (≈ 6020 µg/mL)	10 mM (≈ 3540 µg/mL)	< 0.005 mM	12 mM (≈ 4250 µg/mL)	6.3 µM	1.1	350 ± 10	–	6.3 ± 1.1 µM	6.8 ± 1.6 µM	1.1	–
